Test results from ChEMBL document CHEMBL4196088, “Induction of cell killing and autophagy by amphiphilic pyrrolidine derivatives on human pancreatic cancer cells” (Eur J Med Chem, 2018).

Tests used:
BXPC-3 [1] = test: Induction of apoptosis in human BxPC3 cells assessed as accumulation at sub-G0/G1 phase at 20 uM after 24 hrs by propidium iodide staining based flow cytometry (reference value: 2.3%); assay type: functional
PANC-1 [2] = test: Induction of apoptosis in human PANC1 cells assessed as accumulation at sub-G0/G1 phase at 20 uM after 72 hrs by propidium iodide staining based flow cytometry (reference value: 1.6 to 3.2%); assay type: functional
PK9 [3] = test: Induction of apoptosis in human PK9 cells assessed as accumulation at sub-G0/G1 phase at 20 uM after 72 hrs by propidium iodide staining based flow cytometry (reference value: 4%); assay type: functional
BXPC-3 [4] = test: Induction of apoptosis in human BxPC3 cells assessed as accumulation at sub-G0/G1 phase at 20 uM after 48 hrs by propidium iodide staining based flow cytometry (reference value: 2.8%); assay type: functional
BXPC-3 [5] = test: Induction of apoptosis in human BxPC3 cells harboring pSFFV-Bcl-XL assessed as accumulation at sub-G0/G1 phase at 10 uM after 24 hrs by propidium iodide staining based flow cytometry (reference value: 1.5%); assay type: functional
PK9 [6] = test: Induction of apoptosis in human PK9 cells assessed as accumulation at sub-G0/G1 phase at 20 uM after 24 hrs by propidium iodide staining based flow cytometry (reference value: 2.2%); assay type: functional
PK9 [7] = test: Induction of apoptosis in human PK9 cells assessed as accumulation at sub-G0/G1 phase at 10 uM after 72 hrs by propidium iodide staining based flow cytometry (reference value: 4%); assay type: functional
[8] = Induction of apoptosis in HPNE cells assessed as accumulation at sub-G0/G1 phase at 10 uM after 72 hrs by propidium iodide staining based flow cytometry (reference value: 6.6%); assay type: cell-based; settings: human
PK9 [9] = test: Induction of apoptosis in human PK9 cells assessed as accumulation at sub-G0/G1 phase at 10 uM after 48 hrs by propidium iodide staining based flow cytometry (reference value: 3.8%); assay type: functional
BXPC-3 [10] = test: Induction of apoptosis in human BxPC3 cells assessed as accumulation at sub-G0/G1 phase at 10 uM after 72 hrs by propidium iodide staining based flow cytometry (reference value: 3.4%); assay type: functional
PANC-1 [11] = test: Induction of apoptosis in human PANC1 cells assessed as accumulation at sub-G0/G1 phase at 20 uM after 48 hrs by propidium iodide staining based flow cytometry (reference value: 0.2 to 2.9%); assay type: functional
BXPC-3 [12] = test: Induction of apoptosis in human BxPC3 cells harboring pSFFV-Bcl-XL assessed as accumulation at sub-G0/G1 phase at 10 uM after 48 hrs by propidium iodide staining based flow cytometry (reference value: 1.9%); assay type: functional
SK-BR-3 = test: Growth inhibition of human SKBR3 cells after 72 hrs; assay type: functional, cell-based; settings: SK-BR-3, 72 h
[13] = Induction of apoptosis in HPNE cells assessed as accumulation at sub-G0/G1 phase at 20 uM after 48 hrs by propidium iodide staining based flow cytometry (reference value: 0.7%); assay type: cell-based; settings: human
PK9 [14] = test: Induction of apoptosis in human PK9 cells assessed as accumulation at sub-G0/G1 phase at 10 uM after 24 hrs by propidium iodide staining based flow cytometry (reference value: 2.2%); assay type: functional
[15] = Induction of apoptosis in HPNE cells assessed as accumulation at sub-G0/G1 phase at 20 uM after 24 hrs by propidium iodide staining based flow cytometry (reference value: 0.6%); assay type: cell-based; settings: human
PANC-1 [16] = test: Induction of apoptosis in human PANC1 cells assessed as accumulation at sub-G0/G1 phase at 20 uM after 24 hrs by propidium iodide staining based flow cytometry (reference value: 0.6 to 0.7%); assay type: functional
BXPC-3 [17] = test: Induction of apoptosis in human BxPC3 cells assessed as accumulation at sub-G0/G1 phase harboring pSFFV-Bcl-XL at 20 uM after 72 hrs by propidium iodide staining based flow cytometry (reference value: 1.3%); assay type: functional
BXPC-3 [18] = test: Induction of apoptosis in human BxPC3 cells assessed as accumulation at sub-G0/G1 phase at 10 uM after 48 hrs by propidium iodide staining based flow cytometry (reference value: 2.8%); assay type: functional
PK9 [19] = test: Induction of apoptosis in human PK9 cells assessed as accumulation at sub-G0/G1 phase at 20 uM after 48 hrs by propidium iodide staining based flow cytometry (reference value: 3.8%); assay type: functional
BXPC-3 [20] = test: Induction of apoptosis in human BxPC3 cells assessed as accumulation at sub-G0/G1 phase at 10 uM after 24 hrs by propidium iodide staining based flow cytometry (reference value: 1.8%); assay type: functional
BXPC-3 [21] = test: Induction of apoptosis in human BxPC3 cells harboring pSFFV-Bcl-XL assessed as accumulation at sub-G0/G1 phase at 10 uM after 72 hrs by propidium iodide staining based flow cytometry (reference value: 2%); assay type: functional
BXPC-3 [22] = test: Induction of apoptosis in human BxPC3 cells assessed as accumulation at sub-G0/G1 phase harboring pSFFV-Bcl-XL at 20 uM after 24 hrs by propidium iodide staining based flow cytometry (reference value: 1.2%); assay type: functional
PANC-1 [23] = test: Induction of apoptosis in human PANC1 cells assessed as accumulation at sub-G0/G1 phase at 10 uM after 72 hrs by propidium iodide staining based flow cytometry (reference value: 1.6 to 3.2%); assay type: functional
BXPC-3 [24] = test: Induction of apoptosis in human BxPC3 cells assessed as accumulation at sub-G0/G1 phase harboring pSFFV-Bcl-XL at 20 uM after 48 hrs by propidium iodide staining based flow cytometry (reference value: 1.3%); assay type: functional
[25] = Induction of apoptosis in HPNE cells assessed as accumulation at sub-G0/G1 phase at 10 uM after 24 hrs by propidium iodide staining based flow cytometry (reference value: 0.6%); assay type: cell-based; settings: human
[26] = Induction of apoptosis in HPNE cells assessed as accumulation at sub-G0/G1 phase at 20 uM after 72 hrs by propidium iodide staining based flow cytometry (reference value: 6.6%); assay type: cell-based; settings: human
PANC-1 [27] = test: Induction of apoptosis in human PANC1 cells assessed as accumulation at sub-G0/G1 phase at 10 uM after 24 hrs by propidium iodide staining based flow cytometry (reference value: 0.6 to 0.7%); assay type: functional
PANC-1 [28] = test: Induction of apoptosis in human PANC1 cells assessed as accumulation at sub-G0/G1 phase at 10 uM after 48 hrs by propidium iodide staining based flow cytometry (reference value: 0.2 to 2.9%); assay type: functional
[29] = Induction of apoptosis in HPNE cells assessed as accumulation at sub-G0/G1 phase at 10 uM after 48 hrs by propidium iodide staining based flow cytometry (reference value: 0.7%); assay type: cell-based; settings: human
BXPC-3 [30] = test: Induction of apoptosis in human BxPC3 cells assessed as accumulation at sub-G0/G1 phase at 20 uM after 72 hrs by propidium iodide staining based flow cytometry (reference value: 3.4%); assay type: functional
PANC-1 [31] = test: Growth inhibition of human PANC1 cells after 72 hrs by XTT assay; assay type: functional, cell-based; settings: PANC-1, 72 h
MIA PaCa-2 = test: Growth inhibition of human MIAPaCa2 cells after 72 hrs by MTT assay; assay type: functional, cell-based; settings: MIA PaCa-2, 72 h
PK9 [32] = test: Growth inhibition of human PK9 cells after 72 hrs by MTT assay; assay type: functional, cell-based; settings: PK9, 72 h
BXPC-3 [33] = test: Growth inhibition of human BxPC3 cells after 72 hrs by XTT assay; assay type: functional, cell-based; settings: BXPC-3, 72 h

IC50 (SK-BR-3)	SMILES	Activity (BXPC-3 [1])	Activity (PANC-1 [2])	Activity (PK9 [3])	Activity (BXPC-3 [4])	Activity (BXPC-3 [5])	Activity (PK9 [6])	Activity (PK9 [7])	Activity [8]	Activity (PK9 [9])	Activity (BXPC-3 [10])	Activity (PANC-1 [11])	Activity (BXPC-3 [12])	Activity [13]	Activity (PK9 [14])	Activity [15]	Activity (PANC-1 [16])	Activity (BXPC-3 [17])	Activity (BXPC-3 [18])	Activity (PK9 [19])	further results
15 µM	O[C@H]1[C@@H](O)CN[C@@H]1COCCCCCCCC/C=C/c1ccc(Oc2ccccc2)cc1	8.7%	29.3%	6.2%	16.2%	3.6%	4.6%	3.1%	7.9%	4.4%	8.3%	33.1%	4.8%	81.4%	3.4%	79.1%	9.9%	4.3%	6.6%	5.2%	Activity (BXPC-3 [20]): 3.9%; Activity (BXPC-3 [21]): 4.8%; Activity (BXPC-3 [22]): 4.4%; Activity (PANC-1 [23]): 4.4%; Activity (BXPC-3 [24]): 4.5%; Activity [25]: 6.5%; Activity [26]: 85.8%; Activity (PANC-1 [27]): 3.1%; Activity (PANC-1 [28]): 3.8%; Activity [29]: 6.8%; Activity (BXPC-3 [30]): 20.3%
10 µM	CCCCCC/C=C/CCCCCCCCOC[C@H]1NC[C@H](O)[C@@H]1O	9.5%	33.7%	5.7%	19.6%	4.3%	2.2%	2.7%	2.5%	3.8%	7.8%	23.4%	1.9%	65.7%	3.4%	46.9%	7.9%	3.8%	7.3%	4.3%	IC50 (PANC-1 [31]): 80 µM; IC50 (MIA PaCa-2): > 100 µM; IC50 (PK9 [32]): > 100 µM; IC50 (BXPC-3 [33]): > 100 µM; Activity (BXPC-3 [20]): 5.3%; Activity (BXPC-3 [21]): 3.8%; Activity (BXPC-3 [22]): 4.9%; Activity (PANC-1 [23]): 6.4%; Activity (BXPC-3 [24]): 5%; Activity [25]: 3.4%; Activity [26]: 70.3%; Activity (PANC-1 [27]): 5.7%; Activity (PANC-1 [28]): 9.1%; Activity [29]: 2%; Activity (BXPC-3 [30]): 21.5%
50 µM	CCCCCCCCCCCCCCCCOC[C@H]1NC[C@H](O)[C@@H]1O	7.1%	12.8%	2.8%	16.9%	3.9%	2.6%	2.6%	3.1%	3.5%	7.5%	4.8%	4.2%	62.1%	2%	53.9%	4.4%	7.6%	5.7%	4.6%	Activity (BXPC-3 [20]): 3.5%; Activity (BXPC-3 [21]): 5.8%; Activity (BXPC-3 [22]): 4.4%; Activity (PANC-1 [23]): 4.1%; Activity (BXPC-3 [24]): 4.8%; Activity [25]: 2.6%; Activity [26]: 66.8%; Activity (PANC-1 [27]): 3.1%; Activity (PANC-1 [28]): 3.5%; Activity [29]: 2.2%; Activity (BXPC-3 [30]): 21.7%
10 µM	CCCCCCCC/C=C\CCCCCCCCNC[C@H]1NC[C@H](O)[C@@H]1O																				
